Key:
Type in all cases: in vivo
[1] = system: large (Lg) crabgrass (Digitaria sanguinalis); assay: Test E pre-/postemergence greenhouse test, plant response rating 0-100; details: Preemergence, scale 0 to 100
[2] = system: giant foxtail (Setaria faberii); assay: as above; details: Preemergence, scale 0 to 100
[3] = system: green foxtail (Setaria viridis); assay: as above; details: Preemergence, scale 0 to 100
[4] = system: goosegrass (Eleusine indica); assay: as above; details: Preemergence, scale 0 to 100
[5] = system: johnsongrass (Sorghum halepense); assay: as above; details: Preemergence, scale 0 to 100
[6] = system: Italian ryegrass (Lolium multiflorum); assay: as above; details: scale 0 to 100; for Plant response rating, Ryegrass, Italian: Postemergence; for Ryegrass, Italian plant response rating: Preemergence
In short: (§1)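 Each species was tested both preemergence, with chemicals sprayed onto freshly planted silt loam, and postemergence, on plants 2 to 18 cm tall in a peat-based medium; the vehicle was a non-phytotoxic solvent mixture with surfactant. After 14 to 21 days in the greenhouse, growth was visually compared with controls and scored 0–100.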

corn (Zea mays) = assay: as above; details: scale 0 to 100; for Plant response rating, Corn: Postemergence; for Corn plant response rating: Preemergence
In short: as §1

[7] = system: field bindweed (Convolvulus arvensis); assay: as above; details: scale 0 to 100; for Plant response rating, Field Bindweed: Postemergence; for Field Bindweed plant response rating: Preemergence
In short: as §1

[8] = system: ragweed (common ragweed, Ambrosia elatior); assay: as above; details: Preemergence, scale 0 to 100
In short: as §1

soybean (Glycine max) = assay: as above; details: scale 0 to 100; for Plant response rating, Soybean: Postemergence; for Soybean plant response rating: Preemergence
In short: as §1

[9] = system: surinam grass (Brachiaria decumbens); assay: as above; details: Preemergence, scale 0 to 100
In short: as §1

[10] = system: morningglory (Ipomoea coccinea); assay: as above; details: Preemergence, scale 0 to 100
[11] = system: yellow nutsedge (Cyperus esculentus); assay: as above; details: Preemergence, scale 0 to 100
[12] = system: waterhemp_RES1, (ALS & Triazine resistant common waterhemp, Amaranthus rudis); assay: Test E postemergence greenhouse test, plant response rating 0-100; details: scale 0 to 100
In short: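 Visual ratings, 0 (no effect) to 100 (complete control), made versus controls 14–21 days after postemergence application in the greenhouse. Plants were at 1- to 4-leaf stage (2–18 cm) in peat moss/vermiculite potting medium.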

O=Cn1cc(C(=O)c2ccccc2)c(-c2cc(Cl)cc(Cl)c2)n1 [Compound 28]
20: Foxtail, Giant plant response rating ([2]; 125 g ai/ha) | Ryegrass, Italian plant response rating ([6]; 500 g ai/ha) | Plant response rating, Field Bindweed ([7]; 500 g ai/ha)
85: Plant response rating, Waterhemp_RES1 ([12]; 31 g ai/ha) | Plant response rating, Waterhemp_RES1 ([12]; 62 g ai/ha)
95: Plant response rating, Waterhemp_RES1 ([12]; 250 g ai/ha)
70: Ragweed plant response rating ([8]; 500 g ai/ha)
65: Ragweed plant response rating ([8]; 250 g ai/ha)
90: Plant response rating, Waterhemp_RES1 ([12]; 125 g ai/ha) | Plant response rating, Waterhemp_RES1 ([12]; 500 g ai/ha)
30: Ragweed plant response rating ([8]; 125 g ai/ha)
0: Crabgrass, Large plant response rating ([1]; 31 g ai/ha) | Crabgrass, Large plant response rating ([1]; 62 g ai/ha) | Crabgrass, Large plant response rating ([1]; 125 g ai/ha) | Crabgrass, Large plant response rating ([1]; 250 g ai/ha) | Crabgrass, Large plant response rating ([1]; 500 g ai/ha) | Foxtail, Giant plant response rating ([2]; 31 g ai/ha) | Foxtail, Giant plant response rating ([2]; 62 g ai/ha) | Foxtail, Giant plant response rating ([2]; 250 g ai/ha) | Foxtail, Giant plant response rating ([2]; 500 g ai/ha) | Foxtail, Green plant response rating ([3]; 31 g ai/ha) | Foxtail, Green plant response rating ([3]; 62 g ai/ha) | Foxtail, Green plant response rating ([3]; 125 g ai/ha) | Foxtail, Green plant response rating ([3]; 250 g ai/ha) | Foxtail, Green plant response rating ([3]; 500 g ai/ha) | Goosegrass plant response rating ([4]; 31 g ai/ha) | Goosegrass plant response rating ([4]; 62 g ai/ha) | Goosegrass plant response rating ([4]; 125 g ai/ha) | Goosegrass plant response rating ([4]; 250 g ai/ha) | Goosegrass plant response rating ([4]; 500 g ai/ha) | Johnsongrass plant response rating ([5]; 31 g ai/ha) | Johnsongrass plant response rating ([5]; 62 g ai/ha) | Johnsongrass plant response rating ([5]; 125 g ai/ha) | Johnsongrass plant response rating ([5]; 250 g ai/ha) | Johnsongrass plant response rating ([5]; 500 g ai/ha) | Plant response rating, Ryegrass, Italian ([6]; 31 g ai/ha) | Plant response rating, Ryegrass, Italian ([6]; 62 g ai/ha) | Plant response rating, Ryegrass, Italian ([6]; 125 g ai/ha) | Plant response rating, Ryegrass, Italian ([6]; 250 g ai/ha) | Plant response rating, Ryegrass, Italian ([6]; 500 g ai/ha) | Ryegrass, Italian plant response rating ([6]; 31 g ai/ha) | Ryegrass, Italian plant response rating ([6]; 62 g ai/ha) | Ryegrass, Italian plant response rating ([6]; 125 g ai/ha) | Plant response rating, Corn (corn (Zea mays); 31 g ai/ha) | Plant response rating, Corn (corn (Zea mays); 62 g ai/ha) | Plant response rating, Corn (corn (Zea mays); 125 g ai/ha) | Plant response rating, Corn (corn (Zea mays); 250 g ai/ha) | Plant response rating, Corn (corn (Zea mays); 500 g ai/ha) | Corn plant response rating (corn (Zea mays); 31 g ai/ha) | Corn plant response rating (corn (Zea mays); 62 g ai/ha) | Corn plant response rating (corn (Zea mays); 125 g ai/ha) | Corn plant response rating (corn (Zea mays); 250 g ai/ha) | Corn plant response rating (corn (Zea mays); 500 g ai/ha) | Plant response rating, Field Bindweed ([7]; 31 g ai/ha) | Plant response rating, Field Bindweed ([7]; 62 g ai/ha) | Plant response rating, Field Bindweed ([7]; 125 g ai/ha) | Field Bindweed plant response rating ([7]; 31 g ai/ha) | Field Bindweed plant response rating ([7]; 62 g ai/ha) | Field Bindweed plant response rating ([7]; 125 g ai/ha) | Field Bindweed plant response rating ([7]; 250 g ai/ha) | Field Bindweed plant response rating ([7]; 500 g ai/ha) | Ragweed plant response rating ([8]; 31 g ai/ha) | Ragweed plant response rating ([8]; 62 g ai/ha) | Plant response rating, Soybean (soybean (Glycine max); 31 g ai/ha) | Plant response rating, Soybean (soybean (Glycine max); 62 g ai/ha) | Plant response rating, Soybean (soybean (Glycine max); 125 g ai/ha) | Plant response rating, Soybean (soybean (Glycine max); 250 g ai/ha) | Plant response rating, Soybean (soybean (Glycine max); 500 g ai/ha) | Soybean plant response rating (soybean (Glycine max); 31 g ai/ha) | Soybean plant response rating (soybean (Glycine max); 62 g ai/ha) | Soybean plant response rating (soybean (Glycine max); 125 g ai/ha) | Soybean plant response rating (soybean (Glycine max); 250 g ai/ha) | Soybean plant response rating (soybean (Glycine max); 500 g ai/ha) | Surinam Grass plant response rating ([9]; 31 g ai/ha) | Surinam Grass plant response rating ([9]; 62 g ai/ha) | Surinam Grass plant response rating ([9]; 125 g ai/ha) | Surinam Grass plant response rating ([9]; 250 g ai/ha) | Surinam Grass plant response rating ([9]; 500 g ai/ha) | Morningglory plant response rating ([10]; 31 g ai/ha) | Morningglory plant response rating ([10]; 62 g ai/ha) | Morningglory plant response rating ([10]; 125 g ai/ha) | Morningglory plant response rating ([10]; 250 g ai/ha) | Morningglory plant response rating ([10]; 500 g ai/ha) | Nutsedge, Yellow plant response rating ([11]; 31 g ai/ha) | Nutsedge, Yellow plant response rating ([11]; 62 g ai/ha) | Nutsedge, Yellow plant response rating ([11]; 125 g ai/ha) | Nutsedge, Yellow plant response rating ([11]; 250 g ai/ha) | Nutsedge, Yellow plant response rating ([11]; 500 g ai/ha)
10: Ryegrass, Italian plant response rating ([6]; 250 g ai/ha) | Plant response rating, Field Bindweed ([7]; 250 g ai/ha)

Reference: patent publication US10167262B2, “Herbicidal substituted 3-arylpyrazoles” (FMC CORPORATION, priority 2014, dated 2019)
